Data taken from ChEMBL document CHEMBL3046541, “Design and synthesis of 2-chloroquinoline derivatives as non-azoles antimycotic agents” (2011).

Tests used:
Format in all cases: functional
[1] = tested on: Aspergillus niger; assay: Antifungal activity against Aspergillus niger MTCC 281 at 200 ug/ml after 72 hr by cup-plate method; settings: MTCC 281, 72 h, read-out: IZ
[2] = tested on: Aspergillus flavus; assay: Antifungal activity against Aspergillus flavus MTCC 277 at 200 ug/ml after 72 hr by cup-plate method; settings: MTCC 277, 72 h, read-out: IZ
[3] = tested on: Penicillium citrinum; assay: Antifungal activity against Penicillium citrinum NCIM 768 at 200 ug/ml after 72 hr by cup-plate method; settings: NCIM 768, 72 h, read-out: IZ
[4] = tested on: Monascus purpureus; assay: Antifungal activity against Monascus purpureus MTCC 369 at 200 ug/ml after 72 hr by cup-plate method; settings: MTCC 369, 72 h, read-out: IZ
[5] = tested on: Aspergillus flavus; assay: Antifungal activity against Aspergillus flavus MTCC 277 at 100 ug/ml after 72 hr by cup-plate method; settings: MTCC 277, 72 h, read-out: IZ
[6] = tested on: Penicillium citrinum; assay: Antifungal activity against Penicillium citrinum NCIM 768 at 100 ug/ml after 72 hr by cup-plate method; settings: NCIM 768, 72 h, read-out: IZ
[7] = tested on: Monascus purpureus; assay: Antifungal activity against Monascus purpureus MTCC 369 at 100 ug/ml after 72 hr by cup-plate method; settings: MTCC 369, 72 h, read-out: IZ
[8] = tested on: Aspergillus niger; assay: Antifungal activity against Aspergillus niger MTCC 281 at 100 ug/ml after 72 hr by cup-plate method; settings: MTCC 281, 72 h, read-out: IZ

SMILES | zone of inhibition at 200 µg/mL [1] [mm] | zone of inhibition at 200 µg/mL [2] [mm] | zone of inhibition at 200 µg/mL [3] [mm] | zone of inhibition at 200 µg/mL [4] [mm] | zone of inhibition at 100 µg/mL [5] [mm] | zone of inhibition at 100 µg/mL [6] [mm] | zone of inhibition at 100 µg/mL [7] [mm] | zone of inhibition at 100 µg/mL [8] [mm]
CN(Cc1cc2ccccc2nc1Cl)c1ccc(F)c(Cl)c1 | 19.4 | 20.8 | 10.4 | 13.1 |  |  |  | 
Clc1nc2ccccc2cc1CNc1ccc(Br)cc1 | 13.7 | 10.5 | 9.86 | 8 |  |  |  | 
Clc1ccccc1NCc1cc2ccccc2nc1Cl | 13.9 | 10.6 | 7.06 | 7.33 |  |  |  | 
Cc1ccc(NCc2cc3ccccc3nc2Cl)cc1 | 10.9 | 12.8 | 8.06 | 7.63 |  |  |  | 
CN(Cc1cc2ccccc2nc1Cl)c1ccc(Cl)c(Cl)c1 | 21.1 | 19.5 | 11.1 | 10.4 |  |  |  | 
Cc1cccc(NCc2cc3ccccc3nc2Cl)c1 | 9.53 | 10.1 | 5.73 | 7.6 |  |  |  | 
COc1ccc(NCc2cc3ccccc3nc2Cl)cc1 | 10.8 | 13 | 7.63 | 7.66 |  |  |  | 
Clc1cccc(NCc2cc3ccccc3nc2Cl)c1 | 13.4 | 11.6 | 8.03 | 9.63 |  |  |  | 
Fc1ccc(NCc2cc3ccccc3nc2Cl)cc1Cl | 17.8 | 19.7 | 9.73 | 11.5 |  |  |  | 
Fc1ccc(NCc2cc3ccccc3nc2Cl)cc1 | 14.8 | 15 | 8.53 | 9.8 |  |  |  | 
CN(C/C=C/C#CC(C)(C)C)Cc1cccc2ccccc12 [TERBINAFINE] |  |  |  |  | 25.1 | 21.8 | 26.2 | 24.7
CN(Cc1cc2ccccc2nc1Cl)c1ccccc1 | 13.2 | 14.2 | 9.74 | 8.09 |  |  |  | 
Clc1ccc(NCc2cc3ccccc3nc2Cl)cc1Cl | 19.6 | 18.7 | 8.76 | 9.7 |  |  |  | 
CCCCNCc1cc2ccccc2nc1Cl | 9.47 | 8.25 |  |  |  |  |  | 
Cc1ccccc1NCc1cc2ccccc2nc1Cl | 8.66 | 7.03 | 7.03 | 6.4 |  |  |  | 
O=[N+]([O-])c1ccc(NCc2cc3ccccc3nc2Cl)cc1 | 8.06 | 8.33 | 6.13 | 7.7 |  |  |  | 
CN(Cc1cc2ccccc2nc1Cl)c1cccc(Cl)c1 | 15.2 | 12.1 | 11.1 | 9.63 |  |  |  | 
Clc1nc2ccccc2cc1CNc1ccccc1 | 12 | 12.4 | 8.06 | 7.7 |  |  |  | 
Clc1nc2ccccc2cc1CNC1CCCCC1 | 6.27 |  |  |  |  |  |  | 
CN(Cc1cc2ccccc2nc1Cl)c1ccc(F)cc1 | 15.9 | 17.1 | 9.77 | 11.5 |  |  |  | 
Clc1ccc(NCc2cc3ccccc3nc2Cl)cc1 | 15.9 | 16 | 10.3 | 9.73 |  |  |  | 
Clc1nc2ccccc2cc1CNCc1ccccc1 | 15.7 | 14.5 | 9.06 | 8.4 |  |  |  | 
CN(Cc1cc2ccccc2nc1Cl)c1ccc(Cl)cc1 | 17.1 | 17.7 | 9.85 | 10.5 |  |  |  | 
